Data reported in patent US11453666B2, “Autotaxin inhibitory compounds” (Cancer Research Technology Limited, priority 2015, dated 2022).
Read-outs that look alike come from different tables or passages of the source.

Biological target: human recombinant ATX (Homo sapiens, UniProt Q13822)
Assay: Autotaxin (ATX) activity Quanta Red assay
Type: biochemical
Conditions: read-out: Activity (ATX activity, Quanta Red assay; IC50)
How it was run: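 Recombinant human ATX reaction stopped after 2 h with Quanta Red stop solution; fluorescence read at […]. Controls with DMSO, with and without ATX; IC50 in duplicate.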

[1] = human recombinant ATX 0.8 μg/mL, 2 hours at room temperature, IC50 determined in duplicate

Row | IC50 [nM] | Structure (SMILES) | IC50 [1] [nM]
1 | 9 | COc1ccc(Cn2c(CCC(=O)N[C@@H](C)c3ccc(C)cc3)nc3cccnc32)cc1 [Example 90, 3-[3-(4-Methoxy-benzyl)-3H-imidazo[4,5-b]pyridin-2-yl]-N-((S)-1-p-tolyl-ethyl)-propionamide] | 
2 | 14 | COc1ccc(CNC(=O)CCc2nc3cccc(F)c3n2Cc2ccc(OC)cc2)cc1 [Example 91, 3-[7-Fluoro-1-(4-methoxy-benzyl)-1H-benzoimidazol-2-yl]-N-(4-methoxy-benzyl)-propionamide] | 
3 | 15 | CC[C@H](NC(=O)CCc1nc2cccnc2n1Cc1ccc(OC)cc1)c1ccccc1 [Example 93, 3-[3-(4-Methoxy-benzyl)-3H-imidazo[4,5-b]pyridin-2-yl]-N-((S)-1-phenyl-propyl)-propionamide] | 
4 | 25 | O=C(CCc1nc2cccnc2n1Cc1ccc(F)cc1)NCc1ccc(F)cc1 [Example 94, N-(4-Fluoro-benzyl)-3-[3-(4-fluoro-benzyl)-3H-imidazo[4,5-b]pyridin-2-yl]-propionamide] | 
5 | 26 | C[C@H](NC(=O)CCc1nc2cccnc2n1Cc1ccc(F)c(F)c1)c1ccc(F)cc1 [Example 95, 3-[3-(3,4-Difluoro-benzyl)-3H-imidazo[4,5-b]pyridin-2-yl]-N-[(S)-1-(4-fluoro-phenyl)-ethyl]-propionamide] | 
6 | 22 | COc1ccc(Cn2c(CCC(=O)N[C@@H](C)c3ccc(F)cc3)nc3cccnc32)cc1 [Example 96, N-[(S)-1-(4-Fluoro-phenyl)-ethyl]-3-[3-(4-methoxy-benzyl)-3H-imidazo[4,5-b]pyridin-2-yl]-propionamide] | 
7 | 40 | COc1ccc(CNC(=O)CCc2nc3cccnc3n2Cc2ccc(F)cc2)cc1 [Example 97, 3-[3-(4-Fluoro-benzyl)-3H-imidazo[4,5-b]pyridin-2-yl]-N-(4-methoxy-benzyl)-propionamide] | 
8 | 45 | COc1ccc(CNC(=O)CCc2nc3cccnc3n2Cc2cccc(OC(F)(F)F)c2)cc1 [Example 98, N-(4-Methoxy-benzyl)-3-[3-(3-trifluoromethoxy-benzyl)-3H-imidazo[4,5-b]pyridin-2-yl]-propionamide] | 
9 | 48 | CCC[C@H](NC(=O)CCc1nc2cccnc2n1Cc1ccc(OC)cc1)c1ccccc1 [Example 99] | 
10 | 50 | COc1ccc(CNC(=O)CCc2nc3cccnc3n2Cc2ccc(F)c(F)c2)cc1 [Example 100, 3-[3-(3,4-Difluoro-benzyl)-3H-imidazo[4,5-b]pyridin-2-yl]-N-(4-methoxy-benzyl)-propionamide] | 
11 | 55 | COc1ccc(CNC(=O)CCc2nc3cc(F)cnc3n2Cc2ccccc2OC)cc1 [Example 101, 3-[6-Fluoro-3-(2-methoxy-benzyl)-3H-imidazo[4,5-b]pyridin-2-yl]-N-(4-methoxy-benzyl)-propionamide] | 
12 | 568 | COc1ccc(Cn2c(CCC(=O)N(C)Cc3ccccc3)nc3cccnc32)cc1 [Example 102] | 
13 | 57 | COc1ccc(CNC(=O)CCc2nc3cccnc3n2Cc2ccc(C)cc2)cc1 [Example 103, N-(4-Methoxy-benzyl)-3-[3-(4-methyl-benzyl)-3H-imidazo[4,5-b]pyridin-2-yl]-propionamide] | 
14 | 69 | COc1ccc(Cn2c(CCC(=O)N(C)[C@@H](C)c3ccccc3)nc3cccnc32)cc1 [Example 104, 3-[3-(4-Methoxy-benzyl)-3H-imidazo[4,5-b]pyridin-2-yl]-N-methyl-N-((S)-1-phenyl-ethyl)-propionamide] | 
15 | 88 | COc1ccc(Cn2c(CCC(=O)NCc3ccc4c(ccn4C)c3)nc3cccnc32)cc1 [Example 105, 3-[3-(4-Methoxy-benzyl)-3H-imidazo[4,5-b]pyridin-2-yl]-N-(1-methyl-1H-indol-5-ylmethyl)-propionamide] | 
16 | 98 | COc1ccc(Cn2c(CCC(=O)NCc3ccccc3C)nc3cccnc32)cc1 [Example 106, 3-[3-(4-Methoxy-benzyl)-3H-imidazo[4,5-b]pyridin-2-yl]-N-(2-methyl-benzyl)-propionamide] | 
17 | 102 | COc1ccc(Cn2c(CCC(=O)NCc3ccc(F)c(F)c3)nc3cccnc32)cc1 [Example 107, N-(3,4-Difluoro-benzyl)-3-[3-(4-methoxy-benzyl)-3H-imidazo[4,5-b]pyridin-2-yl]-propionamide] | 
18 | 180 | COc1ccc(Cn2c(CCC(=O)NCCc3ccc(C)cc3)nc3cccnc32)cc1 [Example 108, 3-[3-(4-Methoxy-benzyl)-3H-imidazo[4,5-b]pyridin-2-yl]-N-(2-p-tolyl-ethyl)-propionamide] | 

Row | IC50 [nM] | Structure (SMILES) | IC50 [1] [nM]
19 | 185 | COc1ccc(CNC(=O)CCc2nc3cc(C)cnc3n2Cc2ccc(F)cc2)cc1 [Example 109, 3-[3-(4-Fluoro-benzyl)-6-methyl-3H-imidazo[4,5-b]pyridin-2-yl]-N-(4-methoxy-benzyl)-propionamide] | 
20 | 262 | COc1ccc(CNC(=O)CCc2nc3cccnc3n2Cc2cccc(F)c2)cc1 [Example 110, 3-[3-(3-Fluoro-benzyl)-3H-imidazo[4,5-b]pyridin-2-yl]-N-(4-methoxy-benzyl)-propionamide] | 
21 | 406 | O=C(CCc1nc2cccnc2n1Cc1ccccc1)NCC1CCCCC1 [Example 111, 3-(3-Benzyl-3H-imidazo[4,5-b]pyridin-2-yl)-N-cyclohexylmethyl-propionamide] | 
22 | 1500 | COc1ccc(Cn2c(CCC(=O)NC(C)C)nc3cccnc32)cc1 [Example 113, N-Isopropyl-3-[3-(4-methoxy-benzyl)-3H-imidazo[4,5-b]pyridin-2-yl]-propionamide] | 
23 | 301 | COc1ccc(Cn2c(CCC(=O)NCc3ccccc3F)nc3cccnc32)cc1 [Example 114, N-(2-Fluoro-benzyl)-3-[3-(4-methoxy-benzyl)-3H-imidazo[4,5-b]pyridin-2-yl]-propionamide] | 
24 | 650 | COc1ccc(Cn2c(CCC(=O)NCc3cccc(C)c3)nc3cccnc32)cc1 [Example 115, 3-[3-(4-Methoxy-benzyl)-3H-imidazo[4,5-b]pyridin-2-yl]-N-(3-methyl-benzyl)-propionamide] | 
25 | 778 | COc1ccc(CCNC(=O)CCc2nc3cccnc3n2Cc2ccc(OC)cc2)cc1 [Example 116, 3-[3-(4-Methoxy-benzyl)-3H-imidazo[4,5-b]pyridin-2-yl]-N-[2-(4-methoxy-phenyl)-ethyl]-propionamide] | 
26 | 373 | COc1ccc(Cn2c(CCC(=O)NCc3cccc(F)c3)nc3cccnc32)cc1 [Example 117, N-(3-Fluoro-benzyl)-3-[3-(4-methoxy-benzyl)-3H-imidazo[4,5-b]pyridin-2-yl]-propionamide] | 
27 | 726 | COc1ccc(CNC(=O)CCc2nc3cccnc3n2Cc2cccc(C)c2)cc1 [Example 118, N-(4-Methoxy-benzyl)-3-[3-(3-methyl-benzyl)-3H-imidazo[4,5-b]pyridin-2-yl]-propionamide] | 
28 | 631 | COc1ccc(Cn2c(CCC(=O)N(C)Cc3ccc(F)cc3)nc3cccnc32)cc1 [Example 119, N-(4-Fluoro-benzyl)-3-[3-(4-methoxy-benzyl)-3H-imidazo[4,5-b]pyridin-2-yl]-N-methyl-propionamide] | 
29 | 292 | O=C(CCc1nc2cccnc2n1Cc1ccccc1OC(F)(F)F)NCc1ccc(OC(F)(F)F)cc1 [Example 120, N-(4-Trifluoromethoxy-benzyl)-3-[3-(2-trifluoromethoxy-benzyl)-3H-imidazo[4,5-b]pyridin-2-yl]-propionamide] | 
30 | 269 | Cc1ccc2nc(CCC(=O)N[C@@H](C)c3ccc(F)cc3)n(Cc3ccc(F)cc3)c2n1 [Example 121, 3-[3-(4-fluoro-benzyl)-5-methyl-3H-imidazo[4,5-b]pyridin-2-yl]-N—[(S)-1-(4-fluoro-phenyl)-ethyl]-propionamide] | 
31 |  | C[C@H](NC(=O)CCc1nc2ccncc2n1Cc1ccc(OC(F)(F)F)cc1)c1ccc(Cl)cc1 [Example 122, N—[(S)-1-(4-chloro-phenyl)-ethyl]-3-[3-(4-trifluoromethoxy-benzyl)-3H-imidazo[4,5-c]pyridin-2-yl]-propionamide] | 3
32 | 3 | O=C(CCc1nc2ccncc2n1Cc1ccc(OC(F)(F)F)cc1)N[C@@H](CO)c1ccccc1 [Example 123, N-((R)-2-Hydroxy-1-phenyl-ethyl)-3-[3-(4-trifluoromethoxy-benzyl)-3H-imidazo[4,5-c]pyridin-2-yl]-propionamide] | 
33 |  | C[C@H](NC(=O)CCc1nc2ccncc2n1Cc1ccc(OC(F)(F)F)cc1)c1ccc(F)cc1 [Example 124, N-[(S)-1-(4-Fluoro-phenyl)-ethyl]-3-[3-(4-trifluoromethoxy-benzyl)-3H-imidazo[4,5-c]pyridin-2-yl]-propionamide] | 8
34 | 9 | C[C@H](NC(=O)CCc1nc2ccncc2n1Cc1ccc(OC(F)(F)F)cc1)c1ccc(N2CCN(C)CC2)cc1 [Example 125, N-{(S)-1-[4-(4-Methyl-piperazin-1-yl)-phenyl]-ethyl}-3-[3-(4-trifluoromethoxy-benzyl)-3H-imidazo[4,5-c]pyridin-2-yl]-propionamide] | 
35 | 11 | O=C(CCc1nc2ccncc2n1Cc1ccc(OC(F)(F)F)cc1)NC(CO)c1ccc(OC(F)(F)F)cc1 (centres unmarked) [Example 126, N-[2-Hydroxy-1-(4-trifluoromethoxy-phenyl)-ethyl]-3-[3-(4-trifluoromethoxy-benzyl)-3H-imidazo[4,5-c]pyridin-2-yl]-propionamide] | 
36 | 14 | CC[C@H](NC(=O)CCc1nc2ccncc2n1Cc1ccc(F)cc1)c1ccccc1 [Example 127, 3-[3-(4-Fluoro-benzyl)-3H-imidazo[4,5-c]pyridin-2-yl]-N-((S)-1-phenyl-propyl)-propionamide] | 

Row | Structure (SMILES) | IC50 [nM] | IC50 [1] [nM]
37 | COc1ccc(Cn2c(CCC(=O)N[C@@H](C)c3ccccc3)nc3cccnc32)cc1 [Example 92, 3-[3-(4-Methoxy-benzyl)-3H-imidazo[4,5-b]pyridin-2-yl]-N-((S)-1-phenyl-ethyl)-propionamide] | 17 | 
38 | COc1ccc(Cn2c(CCC(=O)N[C@H](C)c3ccccc3)nc3cccnc32)cc1 [Example 112, 3-[3-(4-Methoxy-benzyl)-3H-imidazo[4,5-b]pyridin-2-yl]-N-((R)-1-phenyl-ethyl)-propionamide] | 1060 | 
